Earlier results, collected in patent publication US5605915A, “Acetylenes disubstituted with a 5 substituted tetrahydronaphthyl group and with an aryl or heteroaryl group having retinoid-like biological activity” (Allergan, priority 1996, dated 1997).

System: ornithine decarboxylase (ODC)
Settings: literature statement

Row | Compound | effect on ODC activity
1 | CC1=C(/C=C/C(C)=C/C=C/C(C)=C/C(=O)O)C(C)(C)CCC1 [Retinoic acid] | inhibits this induction of ODC activity by TPA
2 | CCCCCCCCCCCCCC(=O)O[C@@H]1[C@@H](C)[C@@]2(O)[C@@H](C=C(CO)C[C@]3(O)C(=O)C(C)=C[C@@H]23)[C@@H]2C(C)(C)[C@]12OC(C)=O [12-0-tetradecanoylphorbol-13-acetate] | induces ODC activity
